Results as given in patent US5495032A, “Process for producing 7-(substituted)-8-(substituted-9-[(substituted glycyl)amido]-6-demethyl-6-deoxytetracyclines” (priority 1994, dated 1996).
Values after ≈ are worked out from the molar mass of the structure shown. Where a name gives a salt, the structure may show the parent alone. Read-outs that look alike come from different tables or passages of the source.

Experiments:
Type in all cases: cell-based
E. coli #311 (MP) = assay: MIC, agar dilution method; settings: Escherichia coli, 18 hours at 35° C., read-out: MIC
[1] = system: S. aureus UBMS 88-5 Tet M; assay: microbe, parasite or virus in culture; settings: Staphylococcus aureus, UBMS885TETM, 18 h
E. coli UBMS 88-1 Tet B = assay: microbe, parasite or virus in culture; settings: Escherichia coli, UBMS881TETB, 18 h, 18 hours at 35° C.
[2] = system: S. aureus UBMS 90-2 Tet M; assay: microbe, parasite or virus in culture; settings: Staphylococcus aureus, UBMS902TETM, 18 h, 18 hours at 35° C.
E. coli UBMS 90-5 sens = assay: MIC, agar dilution method; settings: Escherichia coli, UBMS905SENS, 18 hours at 35° C., read-out: MIC
Enterococcus 12201 = assay: MIC, agar dilution method; settings: 18 hours at 35° C., read-out: MIC
[3] = system: E. coli MC 4100 Tet sens.; assay: MIC, agar dilution method; settings: Escherichia coli, 18 hours at 35° C., read-out: MIC
S. mariescens FPOR 8733 = assay: MIC, agar dilution method; settings: 18 h, 18 hours at 35° C.
S. aureus UBMS 88-4 = assay: MIC, agar dilution method; settings: Staphylococcus aureus, UBMS884, 18 hours at 35° C., read-out: MIC
E. coli PRP1 Tet A = assay: microbe, parasite or virus in culture; settings: Escherichia coli, PRP1TETA, 18 h, 18 hours at 35° C.
E. coli J3272 Tet D = assay: microbe, parasite or virus in culture; settings: Escherichia coli, J3272TETD, 18 h
[4] = system: S. aureus UBMS 88-7 Tet K; assay: microbe, parasite or virus in culture; settings: Staphylococcus aureus, UBMS887TETK, 18 h, 18 hours at 35° C.
[5] = system: Ps. acruginosa ATCC 27853; assay: MIC, agar dilution method
[6] = system: X. maltophilia NEMC 87210; assay: MIC, agar dilution method; settings: Stenotrophomonas maltophilia
[7] = system: S. aureus UBMS 90-1 Tet M; assay: microbe, parasite or virus in culture; settings: Staphylococcus aureus, UBMS901TETM, 18 h, 18 hours at 35° C.
E. faecalis ATCC 29212 = assay: MIC, agar dilution method; settings: Enterococcus faecalis
S. aureus NEMC 8769 = assay: MIC, agar dilution method; settings: Staphylococcus aureus, NEMC8769; S. aureus NEMC 8769; 18 hours at 35° C.; read-out: MIC
E. coli UBMS 90-4 Tet M = assay: microbe, parasite or virus in culture; settings: Escherichia coli, UBMS904TETM, 18 h, 18 hours at 35° C.
S. aureus IVES 2943 = assay: MIC, agar dilution method; settings: Staphylococcus aureus, IVES2943; S. aureus IVES 2943; 18 hours at 35° C.; read-out: MIC
[8] = system: E. coli UBMS 89-2 Tet sens; assay: MIC, agar dilution method; settings: Escherichia coli, UBMS892TETSENS, 18 h, 18 hours at 35° C., read-out: MIC
S. aureus ROSE (MP) = assay: MIC, agar dilution method; settings: Staphylococcus aureus, 18 hours at 35° C., read-out: MIC
S. aureus IVES 1 983 = assay: MIC, agar dilution method; settings: Staphylococcus aureus, IVES1983; S. aureus IVES 1 983; 18 hours at 35° C.; read-out: MIC
E. coli J2175 = assay: MIC, agar dilution method; settings: Escherichia coli, 18 hours at 35° C., read-out: MIC
[9] = system: E. coli MC 4100 TNIOC Tet B; assay: microbe, parasite or virus in culture; settings: Escherichia coli, 18 h, 18 hours at 35° C.
S. aureus SMITH (MP) = assay: MIC, agar dilution method; settings: Staphylococcus aureus, 18 hours at 35° C., read-out: MIC
S. aureus ATCC 29213 = assay: MIC, agar dilution method; settings: Staphylococcus aureus, ATCC29213, 18 hours at 35° C., read-out: MIC
E. coli ATCC 25922 = assay: MIC, agar dilution method; settings: Escherichia coli, ATCC25922, 18 hours at 35° C., read-out: MIC
[10] = system: S. hemolyticus AVHAH 88-3; assay: MIC, agar dilution method; settings: Streptococcus pyogenes
E. coli UBMS 89-1 Tet M = assay: microbe, parasite or virus in culture; settings: Escherichia coli, UBMS891TETM, 18 h, 18 hours at 35° C.
E. coli BAJ9003 IMP MUT = assay: microbe, parasite or virus in culture; settings: Escherichia coli, BAJ9003IMPMUT, 18 h, 18 hours at 35° C.
E. coli J3272 Tet C = assay: microbe, parasite or virus in culture; settings: Escherichia coli, J3272TETC, 18 h
[11] = AVHAH883, 18 hours at 35° C., read-out: MIC
[12] = NEMC87210, 18 h, 18 hours at 35° C.

Row | SMILES | MIC (E. coli #311 (MP)) | MIC (E. coli UBMS 88-1 Tet B) | MIC [2] | MIC (E. coli UBMS 90-5 sens) | MIC (Enterococcus 12201) | MIC [3] | MIC (S. mariescens FPOR 8733) | MIC (S. aureus UBMS 88-4) | MIC (E. coli PRP1 Tet A) | MIC (E. coli J3272 Tet D) | MIC [4] | MIC [7] | MIC (S. aureus NEMC 8769) | MIC (E. coli UBMS 90-4 Tet M) | MIC (S. aureus IVES 2943) | MIC [8] | MIC (S. aureus ROSE (MP)) | MIC (S. aureus IVES 1 983) | MIC (E. coli J2175) | MIC [9] | also measured
1 | CN(C)[C@@H]1C(O)=C(C(N)=O)C(=O)[C@@]2(O)C(O)=C3C(=O)c4c(cc(Cl)c(NC(=O)CCl)c4O)CC3CC12 (stereo partly drawn) [K, [4S-(4α,12aα)]-9-[(Chloroacetyl)amino]-8-chloro-4-(dimethylamino)-1,4,4a,5,5a ,6,11,12a-octahydro-3,10,12,12a-tetrahydroxy-1,11-dioxo-2-naphthacenecarboxamide hydrochloride] | 16 µg/mL | > 32 µg/mL | 0.5 µg/mL | > 32 µg/mL | 2 µg/mL | 8 µg/mL | > 32 µg/mL | 0.5 µg/mL | > 32 µg/mL | > 32 µg/mL | 4 µg/mL | 1 µg/mL | 0.5 µg/mL | > 32 µg/mL | 4 µg/mL | > 32 µg/mL | 4 µg/mL | 4 µg/mL | > 32 µg/mL | > 32 µg/mL | MIC ([1]; S. aureus UBMS 88-5 Tet M, 18 hours at 35° C.): 1 µg/mL; MIC ([5]; Ps. acruginosa ATCC 27853, 18 hours at 35° C., read-out: MIC): > 32 µg/mL; MIC ([6]; NEMC87210, 18 hours at 35° C., read-out: MIC): 8 µg/mL; MIC (E. faecalis ATCC 29212; ATCC29212, 18 hours at 35° C., read-out: MIC): 0.5 µg/mL; MIC (S. aureus SMITH (MP)): 0.5 µg/mL; MIC (S. aureus ATCC 29213): 0.5 µg/mL; MIC (E. coli ATCC 25922): 16 µg/mL; MIC [10, 11]: 4 µg/mL; MIC (E. coli UBMS 89-1 Tet M): 8 µg/mL; MIC (E. coli BAJ9003 IMP MUT): 1 µg/mL; MIC (E. coli J3272 Tet C): > 32 µg/mL
2 | CCCCNCC(=O)Nc1c(Cl)cc2c(c1O)C(=O)C1=C(O)[C@]3(O)C(=O)C(C(N)=O)=C(O)[C@@H](N(C)C)C3CC1C2 (stereo partly drawn) [D, [4S-(4α,12aα)]-9-[[(Butylamino)acetyl]amino]-8-chloro-4-(dimethylamino) -1,4,4a,5,5a,6,11,12a-octahydro-3,10,12,12a-tetrahydroxy-1,11-dioxo-2-naphthacenecarboxamide dihydrochloride] | 1 µg/mL | 2 µg/mL | 0.5 µg/mL | 1 µg/mL | 0.5 µg/mL | 0.25 µg/mL | 16 µg/mL | 0.5 µg/mL | 4 µg/mL | 1 µg/mL | 8 µg/mL | 2 µg/mL | 0.5 µg/mL | 1 µg/mL | 16 µg/mL | 2 µg/mL | 16 µg/mL | 8 µg/mL | 1 µg/mL | 1 µg/mL | MIC [1]: 1 µg/mL; MIC ([5]; 18 h): > 32 µg/mL; MIC [6, 12]: 4 µg/mL; MIC (E. faecalis ATCC 29212; ATCC29212, 18 h, 18 hours at 35° C.): 0.25 µg/mL; MIC (S. aureus SMITH (MP)): 0.5 µg/mL; MIC (S. aureus ATCC 29213): 0.5 µg/mL; MIC (E. coli ATCC 25922): 1 µg/mL; MIC [10, 11]: 8 µg/mL; MIC (E. coli UBMS 89-1 Tet M): 0.5 µg/mL; MIC (E. coli BAJ9003 IMP MUT): 0.25 µg/mL; MIC (E. coli J3272 Tet C): 2 µg/mL
3 | CN(C)c1ccc(O)c2c1C[C@H]1C[C@H]3[C@H](N(C)C)C(O)=C(C(N)=O)C(=O)[C@@]3(O)C(O)=C1C2=O [L, Minocycline, reference compound] |  |  |  |  |  |  |  |  |  |  | 0.25 µg/mL (≈ 0.546 µM) | 8 µg/mL (≈ 17.5 µM) |  | > 32 µg/mL |  |  | 1 µg/mL (≈ 2.19 µM) |  |  |  | MIC [1]: 8 µg/mL (≈ 17.5 µM); MIC [6, 12]: 0.25 µg/mL (≈ 0.546 µM); MIC ([10]; AVHAH883, 18 h, 18 hours at 35° C.): 0.25 µg/mL (≈ 0.546 µM)
